Consider two compounds from the NIST ThermoML archive (doi:10.1016/j.jct.2008.07.016).

The series in a line: molar enthalpy of vaporization or sublimation. The settings on record: 298.15 K; Crystal; microcalorimetry.

SMILES strings stand for the structures. Numbers after ± are expanded uncertainties.

Regarding `Brc1ccc2[nH]ccc2c1` [1H-indole, 5-bromo-], the molar enthalpy came out at 22.1 ± 1.1 kcal/mol. Take `Brc1ccc2c(c1)CCN2` [5-Bromoindoline]: the molar enthalpy stood at 21 ± 0.908 kcal/mol.
